From ChEMBL document CHEMBL5303304, “EUbOPEN Chemogenomics Library - IncuCyte” (2023)
Several values for one entry are separate records, joined by “and”; a condition that tells them apart may be missing. Equal values may be shown once.

Legend:
Format in all cases: toxicity, cell-based
[1] = test system: HEK-293T; test: Incucyte cell viability with HEK293T; conditions: human, 10 µM, compound concentration 10 uM
[2] = test system: U2OS; test: Incucyte cell viability with U2OS; conditions: human, 10 µM, compound concentration 10 uM
[3] = test system: Fibroblast; test: Incucyte cell viability with human fibroblast; conditions: 10 µM, compound concentration 10 uM
Note: unitless GR value; below 1 slowed growth and below 0 cell loss.

Row | Compound | Growth Rate ([1]; 0 h, replicate number 1) | Growth Rate ([1]; 0 h, replicate number 2) | Growth Rate ([1]; 12 h, replicate number 2) | Growth Rate ([1]; 18 h, replicate number 1) | Growth Rate ([1]; 18 h, replicate number 2) | Growth Rate ([1]; 24 h, replicate number 1) | Growth Rate ([1]; 24 h, replicate number 2) | Growth Rate ([2]; 6 h, replicate number 1) | Growth Rate ([2]; 12 h, replicate number 1) | Growth Rate ([2]; 18 h, replicate number 2) | Growth Rate ([2]; 24 h, replicate number 2) | Growth Rate ([3]; 0 h, replicate number 1) | Growth Rate ([3]; 6 h, replicate number 1) | Growth Rate ([3]; 6 h, replicate number 2) | Growth Rate ([3]; 12 h, replicate number 2) | Growth Rate ([3]; 18 h, replicate number 2) | Growth Rate ([3]; 24 h, replicate number 1) | Growth Rate ([3]; 24 h, replicate number 2) | Growth Rate ([3]; 18 h, replicate number 1) | Growth Rate ([1]; 6 h, replicate number 2) | further results
1 | O=C(O)Cc1cc(I)c(Oc2ccc(O)c(I)c2)c(I)c1 [TIRATRICOL] | 0.25 | -0.35 | 0.66 | 0.92 | 0.7 | 1 | 0.69 | 0.77 | -0.73 | 0.96 | 0.9 | 0.68 | 0.72 | 0.26 | 0.55 | 0.7 | 0.92 | 0.76 |  |  | Growth Rate ([2]; 18 h, replicate number 1): 0.97
2 | CN(C)Cc1cccc(NC(=C2C(=O)Nc3cc(C(N)=O)ccc32)c2ccccc2)c1 | 0.9 | -0.24 |  |  |  |  |  |  |  |  |  | -0.09 |  | 0.24 | 0.87 |  | 0.13 |  | -0.83 |  | Growth Rate ([2]; 0 h, replicate number 2): -0.78; Growth Rate ([3]; 12 h, replicate number 1): -0.97
3 | COc1ccc(-c2c(-c3ccccc3)oc3ncnc(O[C@H](C)CCCCC(=O)O)c23)cc1 | 0.1 | 0.14 |  |  |  |  |  |  | 0.94 |  |  | -1 | 0.79 | -0.43 | 0.48 | 0.98 | 0.88 |  |  |  | 
4 | COc1cc2c(cc1CC=C(C)C)C(=O)C[C@@H](c1ccc(O)cc1)O2 [BAVACHININ A] | -0.07 | -0.67 | 0.94 |  | 0.89 |  | 0.92 |  | 0.89 |  | 0.99 |  |  | 0.81 |  |  | 0.99 |  |  | 0.97 | Growth Rate ([2]; 0 h, replicate number 1): -0.43; Growth Rate ([2]; 6 h, replicate number 2): 0.85; Growth Rate ([2]; 18 h, replicate number 1): 0.89; Growth Rate ([2]; 24 h, replicate number 1): 0.73; Growth Rate ([3]; 0 h, replicate number 2): -0.08
5 | CCOC(=O)N1CCC(c2cc(O)n3nc(C)c(-c4ccc(F)cc4)c3n2)CC1 |  |  |  | 0.78 |  | 0.88 |  | 0.54 | 0.93 |  |  |  |  | -0.67 | 0.8 | 0.85 |  | 0.92 | 0.13 | 0.98 | Growth Rate ([1]; 12 h, replicate number 1): 0.62; Growth Rate ([2]; 0 h, replicate number 1): 0.61; Growth Rate ([2]; 0 h, replicate number 2): 0.63; Growth Rate ([2]; 6 h, replicate number 2): 0.99; Growth Rate ([2]; 18 h, replicate number 1): 0.98
6 | O=C(NCc1cccnc1OCC(F)(F)F)c1cncc(-c2ccc(Cl)cc2)c1 |  |  |  | 0.84 |  | 0.81 |  | 0.44 | 0.98 |  |  |  |  | -1 | 0.57 | 0.96 | 0.21 |  | -0.38 |  | Growth Rate ([1]; 6 h, replicate number 1): 0.82; Growth Rate ([2]; 0 h, replicate number 2): -0.65
7 | CC(C)c1nc2c(c3c1[C@@H](c1ccc(C(F)(F)F)cc1)OC31CCOCC1)[C@@H](O)CC(C)(C)C2.Cl | 0.12 |  | 0.61 | 0.63 | 0.97 | 0.78 | 0.8 | 0.88 |  | 0.78 | 0.87 | -1 | -0.53 |  | 0.76 |  | 0.49 | 0.96 | 0.15 | 0.11 | Growth Rate ([1]; 12 h, replicate number 1): 0.73; Growth Rate ([2]; 12 h, replicate number 2): 0.78; Growth Rate ([3]; 12 h, replicate number 1): -0.05
8 | CCC(F)(F)c1cc(N2CCC(S(C)(=O)=O)CC2)nc2sc(C(N)=O)c(N)c12 [BI-605906] | -0.07 |  | 0.72 | 0.74 and 0.73 | 0.97 and 0.85 | 0.98 | 0.91 | 0.71 |  | 0.92 | 0.9 | 0.11 | 0.8 | 0.76 and 0.88 | 0.85 and 0.57 and 0.87 |  | 0.9 and 0.91 | 0.97 and 0.94 | 0.99 | 0.83 and 0.48 | Growth Rate ([1]; 6 h, replicate number 1): 0.34 and 0.47; Growth Rate ([1]; 12 h, replicate number 1): 0.79 and 0.84; Growth Rate ([2]; 12 h, replicate number 2): -0.82; Growth Rate ([2]; 18 h, replicate number 1): 0.91; Growth Rate ([2]; 24 h, replicate number 1): 0.96; Growth Rate ([3]; 0 h, replicate number 2): 0.48; Growth Rate ([3]; 12 h, replicate number 1): 0.8
9 | CC(C)n1cnc2c(Nc3cccc(Cl)c3)nc(N[C@H]3CCCC[C@@H]3N)nc21 |  |  | -0.59 | -0.56 | -0.35 | -0.46 | -0.25 | 0.85 | -0.26 | -0.25 | -0.2 |  | -1 | -0.94 | -0.16 | -0.01 |  | 0.13 |  | -0.92 | Growth Rate ([1]; 6 h, replicate number 1): -0.96; Growth Rate ([1]; 12 h, replicate number 1): -0.82; Growth Rate ([2]; 0 h, replicate number 1): -1; Growth Rate ([2]; 6 h, replicate number 2): 0.88; Growth Rate ([2]; 12 h, replicate number 2): -0.22; Growth Rate ([2]; 18 h, replicate number 1): -0.12; Growth Rate ([2]; 24 h, replicate number 1): -0.14
10 | COc1ccc(-n2nc(C(F)(F)F)cc2-c2ccc(Cl)cc2)cc1 [SC-560] | 0.2 | 0.61 |  |  |  |  | 0.9 | 0.67 |  | 0.95 | 0.98 | -1 | 0.63 | -0.87 | 0.09 | 0.54 | 0.68 | 0.62 | 0.62 | 0.8 | Growth Rate ([2]; 6 h, replicate number 2): 0.83; Growth Rate ([2]; 12 h, replicate number 2): 0.86; Growth Rate ([3]; 12 h, replicate number 1): 0.59
11 | CC(C)(O)c1cn(-c2ccc(-c3cccc(S(C)(=O)=O)c3)cc2)c(C(C)(C)c2ccccc2Cl)n1 [BMS-779788] | -0.7 |  | 0.93 | 0.81 | 0.87 | 0.9 | 0.92 |  |  | 0.76 | 0.7 |  | -0.03 | 0.64 | 0.55 | 0.78 | 0.75 | 0.63 | 0.36 | 0.58 | Growth Rate ([1]; 12 h, replicate number 1): 0.97; Growth Rate ([2]; 0 h, replicate number 2): 0.31; Growth Rate ([2]; 6 h, replicate number 2): 0.61; Growth Rate ([2]; 12 h, replicate number 2): 0.79; Growth Rate ([3]; 12 h, replicate number 1): 0.66
